Assay results reported in patent US20230148214A1, “INDAZOLES AND AZAINDAZOLES AS LRRK2 INHIBITORS” (ESCAPE Bio, Inc., priority 2020, published 2023).
pIC50: −log10 of the molar value.

Legend:
LRRK2 WT = target: T1, LRRK2 WT (Homo sapiens, UniProt Q5S007); assay: LRRK2 Kinase Activity Assay (LanthaScreen TR-FRET), wild type; format: biochemical; settings: recombinant wild type LRRK2, 25 μM ATP, 400 nM LRRKtide, 60 min; class symbols
T1 construct: purchased Life Technologies PR8604B
Outline: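 Recombinant wild-type or G2019S LRRK2 incubated with fluorescein-labeled LRRKtide (ERM-based) peptide, ATP and serially diluted compound for 60 min at room temperature.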

LRRK2 G2019S = target: T2, LRRK2 G2019S (Homo sapiens, UniProt Q5S007, G2019S); assay: LRRK2 Kinase Activity Assay (LanthaScreen TR-FRET), G2019S; format: biochemical; settings: recombinant G2019S-LRRK2, 25 μM ATP, 400 nM LRRKtide, 60 min; class symbols
T2 construct: purchased Life Technologies PV4881
Description: LRRK2 kinase activity was measured using a LanthaScreen™ Kinase Activity Assay from ThermoFisher Scientific. Recombinant wild type or G2019S-LRRK2 protein (Life Technologies, PR8604B or PV4881, respectively), was incubated with a fluorescein-labeled peptide substrate called LRRKtide that is based upon ezrin/radixin/moesin (ERM) (Life Technologies, PV4901) in the presence of ATP and serially diluted compound. […] Compound-dependent inhibition of the TR-FRET signal was used to generate a concentration-response curve for IC50 determination.
After 60 min incubation at room temperature, the reaction was stopped by addition of 10 μL of 2×stop solution containing a final concentration of 2 nM anti-pERM antibody and 10 mM EDTA.

T2 sequence (Q5S007 whole entry G2019S): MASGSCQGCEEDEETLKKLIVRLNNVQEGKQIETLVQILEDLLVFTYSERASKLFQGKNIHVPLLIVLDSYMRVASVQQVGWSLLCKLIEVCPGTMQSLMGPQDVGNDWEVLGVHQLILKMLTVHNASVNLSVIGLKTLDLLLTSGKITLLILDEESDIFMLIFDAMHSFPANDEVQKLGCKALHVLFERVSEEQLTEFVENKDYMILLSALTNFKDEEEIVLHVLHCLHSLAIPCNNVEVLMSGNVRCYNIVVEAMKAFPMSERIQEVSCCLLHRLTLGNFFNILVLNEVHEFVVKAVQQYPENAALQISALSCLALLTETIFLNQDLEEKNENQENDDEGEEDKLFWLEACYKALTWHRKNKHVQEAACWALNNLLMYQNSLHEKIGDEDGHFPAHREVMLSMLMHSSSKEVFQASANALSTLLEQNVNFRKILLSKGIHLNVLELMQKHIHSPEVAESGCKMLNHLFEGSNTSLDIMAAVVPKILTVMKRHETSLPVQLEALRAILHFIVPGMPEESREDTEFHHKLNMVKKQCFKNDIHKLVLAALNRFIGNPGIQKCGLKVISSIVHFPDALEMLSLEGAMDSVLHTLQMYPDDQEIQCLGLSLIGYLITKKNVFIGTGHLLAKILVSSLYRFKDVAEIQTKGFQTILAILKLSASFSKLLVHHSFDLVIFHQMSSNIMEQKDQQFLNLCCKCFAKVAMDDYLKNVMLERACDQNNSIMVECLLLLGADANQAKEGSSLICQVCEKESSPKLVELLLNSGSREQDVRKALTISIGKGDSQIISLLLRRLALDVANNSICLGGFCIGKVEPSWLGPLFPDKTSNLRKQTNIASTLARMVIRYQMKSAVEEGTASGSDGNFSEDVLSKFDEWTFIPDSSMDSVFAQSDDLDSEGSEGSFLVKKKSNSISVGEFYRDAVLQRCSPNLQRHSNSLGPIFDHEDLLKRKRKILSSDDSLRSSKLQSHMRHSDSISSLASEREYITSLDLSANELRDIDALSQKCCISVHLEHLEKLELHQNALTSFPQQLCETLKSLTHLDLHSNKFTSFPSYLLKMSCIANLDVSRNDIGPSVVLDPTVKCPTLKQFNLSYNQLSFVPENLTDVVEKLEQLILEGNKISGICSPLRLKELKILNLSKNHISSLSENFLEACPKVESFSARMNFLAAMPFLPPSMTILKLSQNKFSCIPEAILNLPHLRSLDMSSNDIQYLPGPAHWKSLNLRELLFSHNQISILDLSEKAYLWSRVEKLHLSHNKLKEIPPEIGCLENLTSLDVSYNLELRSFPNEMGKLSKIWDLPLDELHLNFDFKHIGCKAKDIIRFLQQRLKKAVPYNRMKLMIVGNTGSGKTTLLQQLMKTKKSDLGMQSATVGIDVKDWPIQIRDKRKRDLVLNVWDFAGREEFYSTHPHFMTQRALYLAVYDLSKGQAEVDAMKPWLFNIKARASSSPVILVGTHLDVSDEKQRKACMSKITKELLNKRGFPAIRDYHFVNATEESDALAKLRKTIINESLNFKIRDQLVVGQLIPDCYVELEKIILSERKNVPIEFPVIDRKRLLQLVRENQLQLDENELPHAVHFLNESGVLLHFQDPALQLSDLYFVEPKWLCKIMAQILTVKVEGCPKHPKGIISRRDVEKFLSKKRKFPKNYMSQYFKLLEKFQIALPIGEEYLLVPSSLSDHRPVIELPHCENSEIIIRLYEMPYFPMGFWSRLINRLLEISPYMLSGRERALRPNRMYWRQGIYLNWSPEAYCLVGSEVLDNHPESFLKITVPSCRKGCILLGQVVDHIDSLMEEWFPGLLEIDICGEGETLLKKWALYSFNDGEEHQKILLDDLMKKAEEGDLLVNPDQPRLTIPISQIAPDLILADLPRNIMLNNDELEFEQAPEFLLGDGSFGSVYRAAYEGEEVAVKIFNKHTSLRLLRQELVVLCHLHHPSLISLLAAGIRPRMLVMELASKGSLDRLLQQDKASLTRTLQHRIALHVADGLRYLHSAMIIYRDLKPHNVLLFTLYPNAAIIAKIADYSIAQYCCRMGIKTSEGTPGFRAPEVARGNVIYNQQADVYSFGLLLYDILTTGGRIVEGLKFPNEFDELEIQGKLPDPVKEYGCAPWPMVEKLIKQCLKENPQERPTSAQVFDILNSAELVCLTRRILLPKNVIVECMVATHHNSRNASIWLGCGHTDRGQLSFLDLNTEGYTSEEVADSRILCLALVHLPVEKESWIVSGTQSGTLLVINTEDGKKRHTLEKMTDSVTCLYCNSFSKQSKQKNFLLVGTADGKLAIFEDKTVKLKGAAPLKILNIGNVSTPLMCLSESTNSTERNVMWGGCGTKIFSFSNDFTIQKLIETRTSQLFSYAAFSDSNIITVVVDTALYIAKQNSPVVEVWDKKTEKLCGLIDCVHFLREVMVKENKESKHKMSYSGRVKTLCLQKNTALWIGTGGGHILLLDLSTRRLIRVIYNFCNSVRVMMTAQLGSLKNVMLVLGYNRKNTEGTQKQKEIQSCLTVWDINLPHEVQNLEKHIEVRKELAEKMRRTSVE
T1 sequence (Q5S007 whole entry): as the sequence (Q5S007 whole entry G2019S) above, with S2019G counted along it

pIC50 (LRRK2 WT)	pIC50 (LRRK2 G2019S)	SMILES
> 7.00	> 7.00	N#Cc1ccc2c(c1)CC[C@@H]2Nc1ccc2[nH]nc(-c3cnco3)c2c1 (single isomer, unassigned) [Example 9, enantiomer 1, 1-((3-(Oxazol-5-yl)-1H-indazol-5-yl)amino)-2,3-dihydro-1H-indene-5-carbonitrile]
6.00 to 7.00	> 7.00	N#Cc1ccc2c(c1)CC[C@@H]2Nc1ccc2[nH]nc(-c3ccoc3)c2c1 (single isomer, unassigned) [Example 11, enantiomer 1, 1-((3-(Furan-3-yl)-1H-indazol-5-yl)amino)-2,3-dihydro-1H-indene-5-carbonitrile]
> 7.00	> 7.00	Cc1cc(C#N)cc2c1[C@@H](Oc1ccc3[nH]nc(-c4cnco4)c3c1)CC2 (single isomer, unassigned) [Example 14, enantiomer 1, 7-Methyl-1-((3-(oxazol-5-yl)-1H-indazol-5-yl)oxy)-2,3-dihydro-1H-indene-5-carbonitrile]
6.00 to 7.00	> 7.00	N#Cc1ccc2c(c1)CCC[C@@H]2Nc1ccc2[nH]nc(I)c2c1 (single isomer, unassigned) [Example 15, enantiomer 1, 5-((3-Iodo-1H-indazol-5-yl)amino)-5,6,7,8-tetrahydronaphthalene-2-carbonitrile]
5.00 to 6.00	6.00 to 7.00	N#Cc1ccc2c(c1)CCC[C@@H]2Nc1ccc2[nH]nc(I)c2c1 (single isomer, unassigned) [Example 15, enantiomer 2, 5-((3-Iodo-1H-indazol-5-yl)amino)-5,6,7,8-tetrahydronaphthalene-2-carbonitrile]
> 7.00	> 7.00	N#Cc1cnc2c(c1)CCC[C@@H]2Oc1ccc2[nH]nc(-c3cnco3)c2c1 (single isomer, unassigned) [Example 16, enantiomer 1, 8-((3-(Oxazol-5-yl)-1H-indazol-5-yl)oxy)-5,6,7,8-tetrahydroquinoline-3-carbonitrile]
6.00 to 7.00	6.00 to 7.00	Cc1n[nH]c2ccc(O[C@H]3CCCc4cc(C#N)ccc43)cc12 (single isomer, unassigned) [Example 19, enantiomer 1, 5-((3-Methyl-1H-indazol-5-yl)oxy)-5,6,7,8-tetrahydronaphthalene-2-carbonitrile]
6.00 to 7.00	> 7.00	Cc1n[nH]c2ccc(O[C@H]3CCCc4cc(C#N)ccc43)cc12 (single isomer, unassigned) [Example 19, enantiomer 2, 5-((3-Methyl-1H-indazol-5-yl)oxy)-5,6,7,8-tetrahydronaphthalene-2-carbonitrile]
> 7.00	> 7.00	N#Cc1ccc2c(c1)CC[C@@H]2Nc1cc2c(-c3cnco3)n[nH]c2cn1 (single isomer, unassigned) [Example 21, enantiomer 1, 1-((3-(Oxazol-5-yl)-1H-pyrazolo[3,4-c]pyridin-5-yl)amino)-2,3-dihydro-1H-indene-5-carbonitrile]
6.00 to 7.00	> 7.00	N#Cc1ccc2c(c1)CC[C@@H]2Nc1cc2c(-c3cnco3)n[nH]c2cn1 (single isomer, unassigned) [Example 21, enantiomer 2, 1-((3-(Oxazol-5-yl)-1H-pyrazolo[3,4-c]pyridin-5-yl)amino)-2,3-dihydro-1H-indene-5-carbonitrile]
> 7.00	> 7.00	N#Cc1ccc2c(c1F)CC[C@@H]2Oc1ccc2[nH]nc(-c3cnco3)c2c1 (single isomer, unassigned) [Example 24, enantiomer 1, 4-Fluoro-1-((3-(oxazol-5-yl)-1H-indazol-5-yl)oxy)-2,3-dihydro-1H-indene-5-carbonitrile]
6.00 to 7.00	> 7.00	Cc1cc2c(cc1C#N)CC[C@@H]2Nc1ccc2[nH]nc(-c3cnco3)c2c1 (single isomer, unassigned) [Example 28, enantiomer 1, 6-Methyl-1-((3-(oxazol-5-yl)-1H-indazol-5-yl)amino)-2,3-dihydro-1H-indene-5-carbonitrile]
> 7.00	> 7.00	Cc1cc2c(cc1C#N)CC[C@H]2Oc1ccc2[nH]nc(-c3cnco3)c2c1 (single isomer, unassigned) [Example 29, enantiomer 1, 6-Methyl-1-((3-(oxazol-5-yl)-1H-indazol-5-yl)oxy)-2,3-dihydro-1H-indene-5-carbonitrile]
> 7.00	> 7.00	N#Cc1ccc2c(c1)CC[C@H]2Nc1ccc2[nH]nc(-c3cnco3)c2n1 (single isomer, unassigned) [Example 30, enantiomer 1, 1-((3-(Oxazol-5-yl)-1H-pyrazolo[4,3-b]pyridin-5-yl)amino)-2,3-dihydro-1H-indene-5-carbonitrile]
> 7.00	> 7.00	N#Cc1ccc2c(c1)CC[C@H]2Oc1ccc2[nH]nc(-c3cnco3)c2n1 (single isomer, unassigned) [Example 31, enantiomer 1, 1-((3-(Oxazol-5-yl)-1H-pyrazolo[4,3-b]pyridin-5-yl)oxy)-2,3-dihydro-1H-indene-5-carbonitrile]

Further lines, the compound ahead of its results:

SMILES	pIC50 (LRRK2 WT)	pIC50 (LRRK2 G2019S)
N#Cc1ccc2c(c1)CC[C@@H]2Nc1ccc2[nH]nc(-c3cnn(C(F)F)c3)c2c1 (single isomer, unassigned) [Example 12, enantiomer 1, 1-((3-(1-(Difluoromethyl)-1H-pyrazol-4-yl)-1H-indazol-5-yl)amino)-2,3-dihydro-1H-indene-5-carbonitrile]	> 7.00	> 7.00
N#Cc1ccc2c(c1)CCC[C@@H]2Oc1ccc2[nH]nc(-c3cnoc3)c2c1 (single isomer, unassigned) [Example 17, enantiomer 1, 5-((3-(Isoxazol-4-yl)-1H-indazol-5-yl)oxy)-5,6,7,8-tetrahydronaphthalene-2-carbonitrile]	> 7.00	> 7.00
N#Cc1ccc2c(c1)CCC[C@@H]2Oc1ccc2[nH]nc(-c3cnoc3)c2c1 (single isomer, unassigned) [Example 17, enantiomer 2, 5-((3-(Isoxazol-4-yl)-1H-indazol-5-yl)oxy)-5,6,7,8-tetrahydronaphthalene-2-carbonitrile]	6.00 to 7.00	> 7.00
N#Cc1ccc2c(c1)CCC[C@@H]2Oc1ccc2[nH]nc(-c3cnco3)c2c1 (single isomer, unassigned) [Example 18, enantiomer 1, 5-((3-(Oxazol-5-yl)-1H-indazol-5-yl)oxy)-5,6,7,8-tetrahydronaphthalene-2-carbonitrile]	> 7.00	> 7.00
N#Cc1ccc2c(c1)CC[C@@H]2Oc1cc2c(-c3cnco3)n[nH]c2cn1 (single isomer, unassigned) [Example 20, enantiomer 1, 1-((3-(Oxazol-5-yl)-1H-pyrazolo[3,4-c]pyridin-5-yl)oxy)-2,3-dihydro-1H-indene-5-carbonitrile]	> 7.00	> 7.00
N#Cc1ccc2c(c1)CC[C@@H]2Oc1cc2c(-c3cnco3)n[nH]c2cn1 (single isomer, unassigned) [Example 20, enantiomer 2, 1-((3-(Oxazol-5-yl)-1H-pyrazolo[3,4-c]pyridin-5-yl)oxy)-2,3-dihydro-1H-indene-5-carbonitrile]	6.00 to 7.00	> 7.00
Cc1c(C#N)ccc2c1CC[C@@H]2Oc1ccc2[nH]nc(-c3cnco3)c2c1 (single isomer, unassigned) [Example 22, enantiomer 1, 4-Methyl-1-((3-(oxazol-5-yl)-1H-indazol-5-yl)oxy)-2,3-dihydro-1H-indene-5-carbonitrile]	> 7.00	> 7.00
N#Cc1cc2c(cc1F)[C@@H](Oc1ccc3[nH]nc(-c4cnco4)c3c1)CC2 (single isomer, unassigned) [Example 23, enantiomer 1, 6-Fluoro-1-((3-(oxazol-5-yl)-1H-indazol-5-yl)oxy)-2,3-dihydro-1H-indene-5-carbonitrile]	> 7.00	> 7.00
N#Cc1cc2c(cc1F)[C@@H](Nc1ccc3[nH]nc(-c4cnco4)c3c1)CC2 (single isomer, unassigned) [Example 25, enantiomer 1, 6-Fluoro-1-((3-(oxazol-5-yl)-1H-indazol-5-yl)amino)-2,3-dihydro-1H-indene-5-carbonitrile]	> 7.00	> 7.00
N#Cc1ccc2c(c1F)CC[C@@H]2Nc1ccc2[nH]nc(-c3cnco3)c2c1 (single isomer, unassigned) [Example 26, enantiomer 1, 4-Fluoro-1-((3-(oxazol-5-yl)-1H-indazol-5-yl)amino)-2,3-dihydro-1H-indene-5-carbonitrile]	> 7.00	> 7.00
Cc1c(C#N)ccc2c1CC[C@@H]2Nc1ccc2[nH]nc(-c3cnco3)c2c1 (single isomer, unassigned) [Example 27, enantiomer 1, 4-methyl-1-((3-(oxazol-5-yl)-1H-indazol-5-yl)amino)-2,3-dihydro-1H-indene-5-carbonitrile]	> 7.00	> 7.00
N#Cc1ccc2c(c1)CC[C@H]2Nc1ccc2[nH]nc(-c3cnco3)c2n1 (single isomer, unassigned) [Example 30, enantiomer 2, 1-((3-(Oxazol-5-yl)-1H-pyrazolo[4,3-b]pyridin-5-yl)amino)-2,3-dihydro-1H-indene-5-carbonitrile]	6.00 to 7.00	> 7.00
